In patent publication US20260297060A1, “COMPOUNDS FOR THE DEGRADATION OF MUTANT BRAF” (C4 THERAPEUTICS, INC., priority 2023, published 2026):

Tested on: A375 cells
Test: A375 Cell Viability Assay (CTGlo), Example 16
Format: cell-based, human
Details: 72 h, 10-point dose series, in words (FIG. 83)
Experimental: The effect of compounds of the invention on cell viability was assessed based on the quantification of ATP using the CellTiter-Glo® 2.0 (referred to here as CTGlo) Cell Viability Assay (Catalog No. G9243, Promega, Madison, WI, USA), which signals the presence of metabolically active cells.
A375 cells were obtained from ATCC (Catalog No. CRL-1619, Manassas, VA, USA) (also referred to here as A375.1) and were maintained in DMEM, (Corning, Catalog No. 10-017-CV, Glendale, AZ, USA) supplemented with 10% fetal bovine serum (FBS; Catalog No. 16000044, Gibco, Grand Island, NY, USA) at 37° C. in an atmosphere of 5% CO2 in air. The cells were routinely sub-cultured to maintain cell density between 3×10^5-1.5×10^6 cells/mL. […] An aliquot of cell suspension was diluted 2× with a 0.4% Trypan Blue solution (Catalog No. 15250061, ThermoFisher Scientific, Waltham, MA, USA) and cell count was determined. […]
Test compounds were prepared by dissolving neat compounds in dimethyl sulfoxide (DMSO; Catalog No. D8418, Sigma-Aldrich, Inc., St. Louis, MO, USA) to generate 10 mM stock solution and stored at −20° C. […] CellTiter-Glo® reagent was then added to the cells and luminescence signals were measured after 4 hours using an EnVision™ Multimode plate reader (Perkin Elmer, Santa Clara, CA). […]

| SMILES | impact on viability of A375 cells |
| --- | --- |
| CCN(C)S(=O)(=O)Nc1ccc(F)c(Oc2ccc3ncn([C@H]4COC5(CCN(C6CC7(C6)CN(c6cc8c(cc6F)c(N6CCC(=O)NC6=O)nn8C)C7)CC5)C4)c(=O)c3c2)c1C#N [Compound 26, (3R)-3-[6-[2-cyano-3-[[ethyl(methyl)sulfamoyl]amino]-6-fluoro-phenoxy]-4-oxo-quinazolin-3-yl]-8-[2-[3-(2,4-dioxohexahydropyrimidin-1-yl)-5-fluoro-1-methyl-indazol-6-yl]-2-azaspiro[3.3]heptan-6-yl]-1-oxa-8-azaspiro[4.5]decane] | significant impact on the viability of A375 cells |
| CCN(C)S(=O)(=O)Nc1ccc(F)c(Oc2ccc3ncn(C4CC5(CCN(C6CC7(C6)CN(c6cc8c(cc6F)c(N6CCC(=O)NC6=O)nn8C)C7)CC5)C4)c(=O)c3c2)c1C#N (centres unmarked) [Compound 141, 6-[2-cyano-3-[[ethyl(methyl)sulfamoyl]amino]-6-fluoro-phenoxy]-3-[7-[2-[3-(2,4-dioxohexahydropyrimidin-1-yl)-5-fluoro-1-methyl-indazol-6-yl]-2-azaspiro[3.3]heptan-6-yl]-7-azaspiro[3.5]nonan-2-yl]-4-oxo-quinazoline] | significant impact on the viability of A375 cells |
